The molecules below were run against T1, hURAT1 (Homo sapiens, UniProt Q96S37) (assay: Inhibition of 14C-uric acid uptake by hURAT1 in HEK293-transfected cells). Settings: HEK-293T cells stably expressing hURAT1, 14C-uric acid uptake, 5 min at 37° C.
T1 construct: expressed in transfected cells
T1 sequence (Q96S37 1-553): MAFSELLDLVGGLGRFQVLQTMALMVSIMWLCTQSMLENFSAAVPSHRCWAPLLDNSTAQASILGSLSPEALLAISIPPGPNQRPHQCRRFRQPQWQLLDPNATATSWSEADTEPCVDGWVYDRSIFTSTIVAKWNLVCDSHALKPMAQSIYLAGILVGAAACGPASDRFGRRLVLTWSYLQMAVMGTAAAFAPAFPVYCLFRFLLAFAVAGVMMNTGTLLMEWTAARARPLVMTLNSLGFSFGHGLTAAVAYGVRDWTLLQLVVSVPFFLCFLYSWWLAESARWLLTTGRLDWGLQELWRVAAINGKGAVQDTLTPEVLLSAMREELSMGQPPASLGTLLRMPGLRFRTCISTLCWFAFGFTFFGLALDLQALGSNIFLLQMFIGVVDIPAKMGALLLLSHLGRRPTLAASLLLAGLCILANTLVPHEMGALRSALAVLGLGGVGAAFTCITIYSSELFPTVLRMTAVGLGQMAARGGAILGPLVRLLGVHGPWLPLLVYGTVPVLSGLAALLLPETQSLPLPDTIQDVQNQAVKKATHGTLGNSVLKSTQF
Format: cell-based
Experimental: 1. Cell Culture and Inoculation
2) When the cells covered 80% of the culture medium, the culture medium was removed. The cells were washed with PBS once, followed by digestion with pancreatin-EDTA. After detachment, the cells were added with a culture medium, exfoliated by pipetting, and centrifuged for harvesting. The harvested cells were added with a culture medium and mixed well to give a cell suspension.
3) The cell density was adjusted to 3×10^5 cells/mL, transferred into a white-wall, clear-bottom, 96-well cell culture plate with 100 μL/well, and incubated for 12-24 h.
1) A 20 mM stock solution of the compound was prepared with DMSO. Then the stock solution was diluted to a starting concentration of 2 mM with DMSO.
2) The solution was serially 4-fold diluted with DMSO from […] to the 10th concentration on a 96-well plate serving as the 100× plate, and respective quality controls were prepared.
3) The solutions in corresponding wells were 10-fold diluted with Cl-free HBSS buffer on another 96-well plate serving as the 10× plate.
4) Buffer containing 0.1 μCi/mL ^14C-uric acid, at 45 μL/well, and a 10× diluted compound, at 5 μL/well, were added to a third 96-well plate serving as the 1× plate for later use. The concentration of DMSO was 1%.
3. Uptake of ^14C-Uric Acid in Cells Stably Expressing hURAT1
1) The uptake assay was performed after the cultivated cells in 96-well plates adhered.
2) The cells were washed once with pre-heated buffer at 200 μL/well.
3) After the wells were dried, corresponding compounds (50 μL/well) and 0.1 μCi/mL ^14C-uric acid were immediately added.
4) The plate with the compound was incubated in a 37° C. incubator for 5 min.
5) 150 μL of ice-cold buffer was added to each well to terminate the uptake. Each well was washed three times with buffer. The cells were carefully washed to avoid detachment.
6) 50 μL of lysis buffer was added to each well, prior to shaking at 900 rpm on an oscillator for 5 min.
7) 150 μL of scintillation solution (Microint 40) was added to each well before shaking at 900 rpm for 5 min.
8) Finally, the microwell plate was transferred to a MicroBeta Trilux (PerkinElmer Co. Ltd.) for detection.
The data were analyzed and the IC50 of the quality controls and all test compounds on the plates were calculated using XL-fit software.

`CCc1nc2ncc(Br)cn2c1C(=O)c1cc(Br)c(O)c(Br)c1` [Example 3, (6-bromo-2-ethylimidazo[1,2-a]pyrimidin-3-yl)(3,5-dibromo-4-hydroxyphenyl)methanone] and `CCc1nc2ncc(F)cn2c1C(=O)c1cc(Br)c(O)c(Br)c1` [Example 4, (3,5-dibromo-4-hydroxyphenyl)(2-ethyl-6-fluoroimidazo[1,2-a]pyrimidin-3-yl)methanone] cannot be ordered by IC50: under 50 nM for the first, under 50 nM for the second.

`CCc1nc2ncc(C(F)(F)F)cn2c1C(=O)c1cc(Br)c(O)c(Br)c1` [Example 5, (3,5-dibromo-4-hydroxyphenyl)(2-ethyl-6-(trifluoromethyl)imidazo[1,2-a]pyrimidin-3-yl)methanone] and `CCc1nc2ncc(Cl)cn2c1C(=O)c1cc(Br)c(O)c(Br)c1` [Example 6, (6-chloro-2-ethylimidazo[1,2-a]pyrimidin-3-yl)(3,5-dibromo-4-hydroxyphenyl)methanone] cannot be ordered by IC50: under 50 nM for the first, under 50 nM for the second.

Compared with `CCc1nc2cc(C(F)(F)F)ncn2c1C(=O)c1cc(Br)c(O)c(Br)c1` [Example 7, (3,5-dibromo-4-hydroxyphenyl)(2-ethyl-7-(trifluoromethyl)imidazo[1,2-c]pyrimidin-3-yl)methanone], `CCc1nc2cc(Cl)ncn2c1C(=O)c1cc(Br)c(O)c(Br)c1` [Example 21, (7-chloro-2-ethylimidazo[1,2-f]pyrimidin-3-yl)(3,5-dibromo-4-hydroxyphenyl)methanone] is lower in IC50: 50 to 200 nM for the first, under 50 nM for the second.

First: CCn1nc2ccc(F)cc2c1C(=O)c1cc(Br)c(O)c(Br)c1 [Example 9, (3,5-dibromo-4-hydroxyphenyl)(2-ethyl-5-fluoro-2H-indazol-3-yl) methanone]
Second: CCn1nc2ccncc2c1C(=O)c1cc(Br)c(O)c(Br)c1 [Example 16, (3,5-dibromo-4-hydroxyphenyl)(2-ethyl-2H-pyrazolo[4,3-c]pyridin-3-yl)methanone]
The IC50 of the first is higher: 50 to 200 nM for the first, under 50 nM for the second.

First: CCc1nc2ncc(F)cn2c1C(=O)c1cc(Br)c(O)c(C#N)c1 [Example 14, 3-bromo-5-(2-ethyl-6-fluoroimidazo[1,2-a]pyrimidine-3-carbonyl)-2-hydroxybenzonitrile]
Second: CCc1nc2ncccn2c1C(=O)c1cc(Br)c(O)c(C#N)c1 [Example 22, 3-bromo-5-(2-ethylimidazo[1,2-a]pyrimidine-3-carbonyl)-2-hydroxybenzonitrile]
The IC50 of the first is lower: 50 to 200 nM for the first, 200 to 500 nM for the second.

First: CCc1nc2ncc(F)cn2c1C(=O)c1cc(Br)c(O)c(C(F)(F)F)c1 [Example 18, (3-bromo-4-hydroxy-5-(trifluoromethyl)phenyl)(2-ethyl-6-fluoroimidazo[1,2-a]pyrimidin-3-yl)methanone]
Second: CCc1nc2ncccn2c1C(=O)c1cc(Br)c(O)c(C(F)(F)F)c1 [Example 23, (3-bromo-4-hydroxy-5-(trifluoromethyl)phenyl)(2-ethylimidazo[1,2-a]pyrimidin-3-yl)methanone]
The IC50 of the first is lower: under 50 nM for the first, 50 to 200 nM for the second. The first is the more potent here.

For `CCc1nc2ncccn2c1C(=O)c1cc(Br)c(O)c(Br)c1` [Example 20, 2,6-dibromo-4-([2-ethylimidazo[1,2-a]pyrimidin-3-yl]carbonyl) phenol], the IC50 was under 50 nM.

From patent US11453674B2, “Heterocyclic compound, preparation method and use thereof in medicine” (SUZHOU SINOVENT PHARMACEUTICALS CO., LTD., priority 2019, dated 2022)
